Data reported in patent US20240270701A1, “BETA ADRENERGIC AGONIST AND METHODS OF USING THE SAME” (Curasen Therapeutics, Inc., priority 2021, published 2024).
Read-outs that look alike come from different tables or passages of the source.

Experiments:
B2-AR = target: T1, B2-AR (Homo sapiens, UniProt P07550); assay: cAMP Gs dynamic HTRF assay, cells expressing beta-adrenergic receptor (CHO-K1), B2-AR; format: cell-based; details: for Emax: relative to full agonist isoproterenol, read-out: Emax (% iso) (%) [B2-AR]; for EC50: cAMP HTRF, read-out: pEC50 [B2-AR] (converted)
T1 construct: expressed in transfected cells; host or cells: CHO-K1
T1 sequence (P07550 whole entry, species assumed): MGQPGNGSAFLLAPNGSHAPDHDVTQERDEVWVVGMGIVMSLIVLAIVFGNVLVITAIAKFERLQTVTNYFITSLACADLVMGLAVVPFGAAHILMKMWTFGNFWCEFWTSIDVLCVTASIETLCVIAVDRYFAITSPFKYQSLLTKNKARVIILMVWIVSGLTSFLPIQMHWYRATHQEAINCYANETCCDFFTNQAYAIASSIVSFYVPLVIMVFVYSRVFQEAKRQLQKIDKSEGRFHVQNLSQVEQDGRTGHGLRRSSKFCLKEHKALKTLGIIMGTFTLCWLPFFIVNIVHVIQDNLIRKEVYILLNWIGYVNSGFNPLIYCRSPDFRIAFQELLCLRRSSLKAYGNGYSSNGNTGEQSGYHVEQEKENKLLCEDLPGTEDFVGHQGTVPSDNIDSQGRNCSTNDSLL

B1-AR = target: T2, B1-AR (Homo sapiens, UniProt P08588); assay: cAMP Gs dynamic HTRF assay, cells expressing beta-adrenergic receptor (CHO-K1), B1-AR; format: cell-based; details: for EC50: cAMP HTRF, read-out: pEC50 [B1-AR] (converted); for Emax: relative to full agonist isoproterenol, read-out: Emax (% iso) (%) [B1-AR]
T2 construct: expressed in transfected cells; host or cells: CHO-K1
T2 sequence (P08588 whole entry, species assumed): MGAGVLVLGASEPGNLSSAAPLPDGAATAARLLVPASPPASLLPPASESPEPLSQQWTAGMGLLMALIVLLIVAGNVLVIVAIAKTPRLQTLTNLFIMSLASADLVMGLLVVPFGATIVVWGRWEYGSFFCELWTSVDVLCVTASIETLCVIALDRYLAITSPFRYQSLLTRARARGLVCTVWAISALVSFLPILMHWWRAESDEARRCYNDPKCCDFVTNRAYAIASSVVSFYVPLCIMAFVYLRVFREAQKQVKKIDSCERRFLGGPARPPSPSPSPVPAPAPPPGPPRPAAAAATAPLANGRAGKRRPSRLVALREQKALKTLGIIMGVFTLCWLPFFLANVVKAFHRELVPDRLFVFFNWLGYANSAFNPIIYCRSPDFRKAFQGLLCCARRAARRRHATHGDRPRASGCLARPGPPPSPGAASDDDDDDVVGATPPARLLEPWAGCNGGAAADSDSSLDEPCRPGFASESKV

Structure (SMILES)	Emax (B2-AR; CHO-K1, CHO-K1 cells) [%]	EC50 (B2-AR; CHO-K1 cells) [nM]	EC50 (B1-AR) [nM]	Emax (B1-AR) [%]	Emax (B2-AR; CHO-K1 cells) [%]
CC(C)(C)NC[C@@H](O)c1ccc(N)nn1 [I-141]	> 90	100 to 1000	> 1000	> 90	–
CC(C)(C)NC[C@H](O)c1ccc(N)nn1 [I-142]	> 90	10 to 100	10 to 100	> 90	–
CC(C)(C)NC[C@@H](O)c1cccc(Br)n1 [I-143]	50 to 70	> 1000	100 to 1000	70 to 90	–
Cc1nc(N)ncc1[C@@H](O)CNC(C)(C)C [I-144]	> 90	10 to 100	> 1000	70 to 90	–
Cc1nc(N)c(Cl)cc1[C@@H](O)CNC(CO)CO [I-145]	–	> 1000	> 1000	70 to 90	70 to 90
Cc1nc(N)c(Cl)cc1[C@@H](O)CNC1COC1 [I-146]	–	> 1000	> 1000	< 50	> 90
CC(C)(C)NC[C@H](O)c1cccc2[nH]c(=O)sc12 [I-147]	–	< 10	< 10	70 to 90	> 90
CC1(N[C@H](CO)c2cncc3[nH]ncc23)CC1 [I-148]	–	> 1000	> 1000	70 to 90	70 to 90
CC1(N[C@@H](CO)c2cncc3[nH]ncc23)CC1 [I-149]	–	> 1000	> 1000	< 50	70 to 90
Cc1nc(N)ccc1[C@@H](O)CNC(C)(C)C [I-150]	> 90	< 10	10 to 100	> 90	–
CC(C)(CO)NC[C@H](O)c1cc(C#N)cc2[nH]ncc12 [I-151]	> 90	100 to 1000	100 to 1000	70 to 90	–
N#Cc1cc([C@@H](O)CNC2CCC2)c2cn[nH]c2c1 [I-152]	–	10 to 100	10 to 100	70 to 90	> 90
N#Cc1cc([C@@H](O)CNC2CC2)c2cn[nH]c2c1 [I-153]	–	100 to 1000	100 to 1000	70 to 90	> 90
Cc1nc(N)ccc1[C@@H](O)CNC1(C)CCC1 [I-154]	> 90	< 10	100 to 1000	> 90	–
CC1(NC[C@H](O)c2cc(C#N)cc3[nH]ncc23)CC1 [I-155]	> 90	10 to 100	100 to 1000	70 to 90	–
CC1(NC[C@H](O)c2cncc3[nH]ncc23)CCC1 [I-156]	–	10 to 100	100 to 1000	70 to 90	> 90
CC1(NC[C@H](O)c2cc(C#N)cc3[nH]ncc23)CCC1 [I-157]	> 90	10 to 100	100 to 1000	70 to 90	–
O[C@@H](CNC1CCC1)c1cncc2[nH]ncc12 [I-158]	–	100 to 1000	100 to 1000	> 90	> 90
CC(C)NC[C@H](O)c1cncc2[nH]ncc12 [I-159]	–	100 to 1000	100 to 1000	70 to 90	> 90
CC(C)CNC[C@H](O)c1cc(C#N)cc2[nH]ncc12 [I-160]	70 to 90	100 to 1000	100 to 1000	70 to 90	–
CC(C)NC[C@H](O)c1cc(C#N)cc2[nH]ncc12 [I-161]	–	10 to 100	10 to 100	> 90	> 90
CC(C)(CO)NC[C@H](O)c1cncc2[nH]ncc12 [I-162]	–	100 to 1000	> 1000	> 90	> 90
CC(C)CNC[C@H](O)c1cncc2[nH]ncc12 [I-163]	–	> 1000	> 1000	70 to 90	50 to 70
O[C@@H](CNC1CC1)c1cncc2[nH]ncc12 [I-164]	–	100 to 1000	100 to 1000	70 to 90	> 90
CCC(C)(C)NC[C@H](O)c1cccnc1C [I-165]	70 to 90	100 to 1000	100 to 1000	70 to 90	–

Structure (SMILES)	Emax (B2-AR; CHO-K1, CHO-K1 cells) [%]	EC50 (B2-AR; CHO-K1 cells) [nM]	EC50 (B1-AR) [nM]	Emax (B1-AR) [%]	Emax (B2-AR; CHO-K1 cells) [%]
Cc1n[nH]c2cccc([C@@H](O)CNC3CCC3)c12 [I-166]	–	10 to 100	100 to 1000	50 to 70	70 to 90
Cc1n[nH]c2cccc([C@@H](O)CNC3CC3)c12 [I-167]	70 to 90	100 to 1000	> 1000	70 to 90	–
Cc1n[nH]c2cccc([C@@H](O)CNC3(C)CCC3)c12 [I-168]	–	< 10	10 to 100	70 to 90	70 to 90
Cc1n[nH]c2cccc([C@@H](O)CNC3(C)CC3)c12 [I-169]	–	10 to 100	100 to 1000	70 to 90	70 to 90
Cc1n[nH]c2cccc([C@@H](O)CNC(C)C)c12 [I-170]	–	10 to 100	100 to 1000	70 to 90	70 to 90
CCC(C)(C)NC[C@H](O)c1cc(Cl)c(N)nc1C [I-171]	> 90	< 10	10 to 100	70 to 90	–
CCc1n[nH]c2cccc([C@@H](O)CNC(C)(C)C)c12 [I-172]	–	100 to 1000	100 to 1000	70 to 90	50 to 70
Cc1n[nH]c2cccc([C@@H](O)CNC(C)(C)CO)c12 [I-173]	70 to 90	100 to 1000	100 to 1000	70 to 90	–
Cc1n[nH]c2cccc([C@@H](O)CNCC(C)C)c12 [I-174]	–	100 to 1000	> 1000	70 to 90	50 to 70
CC(C)(C)NC[C@H](O)c1cccc2[nH]nc(C(F)F)c12 [I-175]	–	100 to 1000	100 to 1000	70 to 90	70 to 90
Cc1ncccc1[C@@H](O)CNC(C)(C)CO [I-176]	70 to 90	100 to 1000	> 1000	50 to 70	–
Cc1ncccc1[C@@H](O)CNC1(C)CCC1 [I-177]	> 90	10 to 100	> 1000	70 to 90	–
Cc1nc(N)c(Cl)cc1[C@@H](O)CNC1CC(F)(F)C1 [I-178]	> 90	100 to 1000	> 1000	50 to 70	–
Cc1nc(N)c(F)cc1[C@@H](CO)NC(C)(C)C [I-179]	–	> 1000	> 1000	< 50	< 50
Cc1nc(N)c(F)cc1[C@H](CO)NC(C)(C)C [I-180]	–	> 1000	> 1000	< 50	< 50
Cc1ncccc1[C@@H](O)CNC1CC(F)(F)C1 [I-181]	–	> 1000	> 1000	< 50	50 to 70
Cc1ncccc1[C@@H](O)CNC1CC(C)(C)C1 [I-182]	–	> 1000	> 1000	< 50	50 to 70
Cc1ncccc1[C@@H](O)CNCC(C)C [I-183]	50 to 70	> 1000	> 1000	< 50	–
Cc1ncccc1[C@@H](O)CNC(C)C [I-184]	70 to 90	100 to 1000	> 1000	70 to 90	–
Cc1nc(N)c(Cl)cc1[C@H](CO)NC1CC(F)(F)C1 [I-185]	–	> 1000	> 1000	< 50	< 50
Cc1nc(N)c(Cl)cc1[C@@H](CO)NC1CC(F)(F)C1 [I-186]	–	> 1000	> 1000	< 50	< 50
Cc1ncccc1[C@@H](O)CNC1CCC1 [I-187]	70 to 90	100 to 1000	> 1000	70 to 90	–
Cc1ncccc1[C@@H](O)CNC1(C)CC1 [I-188]	> 90	10 to 100	100 to 1000	> 90	–
CC(C)(C)NC[C@H](O)c1ccc(Cl)c2[nH]nc(F)c12 [I-189]	70 to 90	< 10	< 10	> 90	–
